Four molecules from patent publication US9861600B2, “Methods and compositions for treating and identifying compounds to treat age-related macular degeneration treatment” (Arizona Board of Regents on behalf of the University of …, priority 2008, dated 2018) can be followed below.

One experiment deals with PEDF secretion by RPE. Kind of experiment: PEDF secretion by pigmented RPE cells (ELISA of conditioned medium). The class given is cell-based. The protocol: Mutations in OA1 cause defects in the development of the neurosensory retina. […] After treatment, the cells were returned to standard medium without exogenous L-DOPA for three days. Control cells were not treated with L-DOPA, but the medium was changed at the same time the experimental cells were returned to normal medium. Conditioned medium was collected after three days and PEDF was measured.
In these experiments, pigmented RPE cells were either maintained in DMEM, or DMEM containing 200 μM PTU for three days, then PEDF secretion was measured. […] The data are presented as percent of control for this experiment because the cultures used varied in both pigmentation and PEDF expression before the experiment began.

The target of experiment [1] is T1, OA1 (Homo sapiens, UniProt P51810). The settings on record: 1.0 μM.
T1 sequence (P51810 whole entry): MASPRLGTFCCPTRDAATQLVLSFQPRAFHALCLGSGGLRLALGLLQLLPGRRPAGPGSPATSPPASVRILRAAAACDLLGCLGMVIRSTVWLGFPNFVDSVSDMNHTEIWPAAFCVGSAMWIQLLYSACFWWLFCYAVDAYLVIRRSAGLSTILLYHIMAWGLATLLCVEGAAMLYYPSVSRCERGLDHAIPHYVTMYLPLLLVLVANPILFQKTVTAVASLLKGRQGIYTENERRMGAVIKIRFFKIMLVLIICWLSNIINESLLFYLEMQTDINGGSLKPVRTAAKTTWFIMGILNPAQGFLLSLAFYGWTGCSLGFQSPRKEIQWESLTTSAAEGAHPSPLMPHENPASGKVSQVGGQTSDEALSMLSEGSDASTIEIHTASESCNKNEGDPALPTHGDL
For experiment [2], the target named is T1, OA1. As to conditions: untransfected cells.
For experiment [3], the target named is T1, OA1. Kind of experiment: Measurement of [Ca2+]i (Fura-2 ratiometric imaging) in CHO cells transfected to express OA1. The class given is cell-based. More on the design: expressed in transfected cells; host or cells: CHO cells (ATCC).
Experiment [4] has as its target T1, OA1. Kind of experiment: Radiolabeled ligand binding of [3H]-L-DOPA to CHO cells transfected to express OA1 (saturation). Further details: expressed in transfected cells; host or cells: CHO cells (ATCC).
The subject of experiment [5] is retinal ganglion cells and photoreceptors. As to the kind of experiment: L-DOPA supplementation in drinking water of tyrosinase deficient pregnant mice and pups (E7 to P14). As to conditions: 1.0 mg/ml in drinking water, E7 to P14, tyrosinase deficient mice. The class given is in vivo.
Experiment [6] concerns the target T1, OA1. Kind of experiment: Competitive binding against 5 μM [H3] L-DOPA in OA1 transfected CHO cells. Further details: expressed in transfected cells; host or cells: CHO cells (ATCC).
Experiment [7] has as its target T1, OA1. Kind of experiment: Cell surface biotinylation / western blot of OA1 in cultured cells at lowered tyrosine. The class given is cell-based. Further details: expressed in transfected cells; host or cells: CHO cells (ATCC). How it is done: Endosomal localization of GPCRs occurs normally after exposure to a ligand. Therefore, it was investigated whether a ligand for the receptor was present in the standard incubation medium that could drive internalization of OA1. Since the standard culture medium contains 500 μM tyrosine, and tyrosine is the starting material for pigment synthesis, the effect of tyrosine on receptor distribution was evaluated. To test whether tyrosine affected OA1 distribution in cultured cells DMEM was formulated without tyrosine, and dialyzed fetal bovine serum was used. In the presence of tyrosine-free medium, OA1 was detected on the plasma membrane of cultured RPE cells both in the absence (not shown), and in medium containing low concentrations of tyrosine (1 μM, FIG. 1 B). […] Similarly, OA1-GFP expressed in COS illustrated a cell surface expression that was tyrosine sensitive (FIG. 1 C). Quantification of six such experiments indicated significant variability in the amount of OA1 found at the cell surface using transient transfections. […]
Not only was the distribution of OA1 in transfected cells sensitive to tyrosine levels in the medium, total OA1-GFP expression was increased 5-fold in cells maintained in 1 μM tyrosine. To verify that this difference related to OA1 expression rather than cell number, actin expression was evaluated from the paired samples. […]
(In general: In western blotting, separated proteins are transferred to a membrane and probed.)

“And” between values parts separate entries of the source, which are not always exact repeats. Identical values can stand only once. Like-named read-outs stand apart in the source and are kept apart here.

As to `NC(=S)Nc1ccccc1` [PTU, phenylthiourea], the PEDF secretion entry in the experiment on PEDF secretion by RPE (200 μM for three days, pigmented RPE) is “significant decrease”.
Usually Kd stands for the concentration at which binding is half-saturated. For `N[C@@H](Cc1ccc(O)c(O)c1)C(=O)O` [L-DOPA, 2-amino-3-(3,4-dihydroxyphenyl)propanoic acid], the “change in [Ca2+]i” value on OA1 [1] (RPE cells transfected to express OA1) and on OA1 [1] (RPE expressing endogenous OA1) was “increase” throughout. Moreover, the β-arrestin distribution response entry on OA1 [2] is listed as “no response”. For the same molecule, the PEDF secretion result with PEDF secretion by RPE (1 μM for one hour, medium collected after three days, vs paired control pigmented RPE) is “significant increase”; in the experiment with PEDF secretion by RPE (1.0 μM in continued presence of PTU, measured after 72 hours), “increasing PEDF secretion”. Further, the “pertussis toxin sensitivity of the [Ca2+]i increase” value on OA1 [3] (in presence of pertussis toxin, CHO and RPE) is “not pertussis toxin sensitive”. Further, on OA1 [4] (Kd of L-DOPA binding to OA1, OA1 transfected CHO cells, [3H]-L-DOPA), the Kd is 9.34 µM and 9.35 µM. The “specific binding of L-DOPA” value on OA1 [4] (untransfected CHO cells) is on record as “No specific binding”. Also, in experiment [5], the “photoreceptor nuclear area (measure of photoreceptor numbers)” value was “increased the photoreceptor nuclear area”. Moreover, the “retinal ganglion cell numbers” value in experiment [5] is reported as “increases retinal ganglion cell numbers”.
Turning to pertussis toxin, the “basal level of [Ca2+]i” value on OA1 [3] (all cells studied (transfected CHO and RPE, RPE with endogenous OA1)) is “lowered the basal level”.
Broadly, the Ki is the dissociation constant of the complex between target and ligand, obtained from inhibition or displacement. The molecule `N[C@@H](Cc1ccc(O)cc1)C(=O)O` [tyrosine] showed a Ki at OA1 [6] of 52.9 µM. Besides, on OA1 [6] (competitor at 1 mM), the “competition with L-DOPA for OA1 binding” value is given as “competed with L-DOPA”. In addition, the “OA1 in the bound (cell surface) fraction” value on OA1 [7] (OA1-GFP transfected COS cells maintained in 1 μM tyrosine) is recorded as 5-40%. For the same molecule, at OA1 [7] (transfected cells in 1 μM tyrosine vs normal DMEM (500 μM)), the “increase of total OA1-GFP expression” value stood at 5 fold. Further, on OA1 [3] (concentrations up to 1 mM, OA1 transfected CHO cells), the “effect on [Ca2+]i” value is recorded as “no positive effect”.
